Assay results taken from patent US20200079812A1, “UV-B ABSORBING COMPOUNDS ISOLATED FROM PLANTS” (MAX-PLANCK-GESELLSCHAFT ZUR FÖRDERUNG DER WISSENSCHAFTEN …, priority 2015, published 2020).
Several values for one entry are separate records, joined by “and”; a condition that tells them apart may be missing. Equal entries are not always repeated.

Assay: UV-B absorption profile (UV-VIS spectra, HPLC-PDA profiling)
Assay type: physicochemical
Procedure: Column chromatography was carried out over ODS (Nacalai Tesque, Cosmosil 75C18-OPN). HPLC analysis was carried out on an Atlantis® (ϕ4.6×150 mm, Waters) at a flow rate of 0.5 ml min^1. Preparative HPLC was performed on a LC 10A system (Shimadzu) using an Inertsil® ODS-EP 5 m ($6.0×150 mm) at 30° C. and monitoring was accomplished by PDA (200-600 nm). HPLC-PDA-ESI-MS (HPLC/photodiode array detection/electrospray ionization mass spectrometry) was performed on a Finnigan LCQ-DECA mass spectrometer (ThermoQuest, San Jose, Calif., USA) and an Agilent HPLC 1100 series (Agilent Technologies, Palo Alto, Calif., USA). HR-ESI-MS was performed on an Exactive™ mass spectrometer (ThermoQuest, San Jose, Calif., USA). Optical rotations were determined on a JASCO P-1020. UV spectra were recorded on a JASCO V-560. NMR data were recorded on JEOL JNM ECP-600. The deuterated solvent CD3OD was used for peak 4. Coupling constants are expressed in Hz.
UV-VIS spectra in the range between 260 nm and 450 nm were recorded and analyzed via HPLC-PDA profiling for kaempferol-3-Glc-2″-Rha-7Rha (FIG. 3A), saiginol A (kaempferol-3-Glc-2″-Rha-6″-sinapoyl-7Rha, FIG. 3B) and sinapoyl-glucose (FIG. 3C). HPLC-PDA (HPLC/photodiode array detection) was performed on Dionex Ultimate 3000 system (San Jose, Calif., USA). […]

With `CC1OC(Oc2cc(O)c3c(=O)c(OC4OC(CO)C(O)C(O)C4OC4OC(C)C(O)C(O)C4O)c(-c4ccc(O)cc4)oc3c2)C(O)C(O)C1O` (centres unmarked) [kaempferol-3-Glc-2″-Rha-7Rha, kaempferol-3-O-Glc-2″-O-Rha-7-O-Rha, reference compound] the “UV-B absorption (efficiency / UV-B absorbent properties)” value (UV-VIS spectra 260-450 nm, HPLC-PDA profiling, FIG. 3) was “much less efficient”.
For `COc1cc(/C=C/C(=O)OC[C@H]2O[C@@H](Oc3c(-c4ccc(O)cc4)oc4cc(O[C@@H]5O[C@@H](C)[C@H](O)[C@@H](O)[C@H]5O)cc(O)c4c3=O)[C@H](O[C@@H]3O[C@@H](C)[C@H](O)[C@@H](O)[C@H]3O)[C@@H](O)[C@@H]2O)cc(OC)c1O` [Saiginol A, Kaempferol-3-O-[2-O-(α-L-rhamnopyranosyl)-6-O-(sinapoyl)-β-D-glucopyranoside]-7-O-α-L-rhamnopyranoside], the “Amax (UV-VIS absorption maximum)” value (UV-VIS spectrum, UV (MeOH)) was 201.5 nm and 223.0 nm and 266.5 nm and 331.5 nm.
